From PMC10796410 (Cancer Chemotherapy and Pharmacology, 2023)
Several values for one entry are separate records, joined by “and”; a condition that tells them apart may be missing. Identical values can stand only once. Like-named read-outs stand apart in the source and are kept apart here.

Key:
[1] = tested on: OCT2; parameters: method as in earlier work; conditions: in vitro studies; cited from earlier work
[2] = tested on: epithelial ovarian cancer cell lines; conditions: drugs given separately or co-administered; cited from earlier work
[3] = tested on: MATE2K; parameters: method as in earlier work; conditions: in vitro studies; cited from earlier work
[4] = tested on: BCRP; parameters: method as in earlier work; conditions: in vitro studies; cited from earlier work
[5] = tested on: OAT3; parameters: method as in earlier work; conditions: in vitro studies; cited from earlier work
[6] = Plasma pharmacokinetics of olaparib in rats after a single oral dose, alone or with metformin (UPLC-MS/MS, non-compartmental); assay type: in vivo, Wistar rats; conditions: for concentration at 0.083 h / concentration at 0.167 h / concentration at 0.333 h / concentration at 0.5 h / concentration at 0.75 h / concentration at 1 h / concentration at 2 h / concentration at 3 h / concentration at 4 h / concentration at 6 h / concentration at 8 h / concentration at 10 h / concentration at 12 h / concentration at 24 h / AUC(0-inf) / AUC(0-t) / Cmax / Tmax / Vd/F / k el: male, Wistar, rat, plasma; for concentration at 0.083 h / concentration at 0.167 h / concentration at 0.333 h / concentration at 0.5 h / concentration at 0.75 h / concentration at 1 h / concentration at 2 h / concentration at 3 h / concentration at 4 h / concentration at 6 h / concentration at 8 h / concentration at 10 h / concentration at 12 h / concentration at 24 h: oral, group mean, read-out: Cave_ola; for AUC(0-inf) / AUC(0-t) / Cmax / Tmax / Vd/F / k el: po; for AUC(0-inf) / AUC(0-t) / Cmax / Tmax / Vd/F / k el / Cl/F / t0.5: rat plasma, n = 8, mean ± SD
From the text: All applicable international, national, and/or institutional guidelines for the care and use of animals were followed. The animals were given a standard diet and water ad libitum, and the experimental protocol for this study was approved by the Local Ethics Committee (No. 45/2022, of 27 May 2022), Poznań University of Life Sciences, Department of Animal Physiology and Biochemistry, Wołyńska 35, 60–637 Poznań, Poland. Adult male Wistar rats (weight 380–530 g) were used in the study. The animals were maintained under standard breeding conditions with a 12/12 h light–dark cycle (lights on at 06.00, lights off at 18.00) at constant room temperature (23 ± 2 °C), relative humidity of 55 ± 10% and given ad libitum access to food and water. The animals were allowed to acclimatize for a week before the beginning of the experiments. The rats were divided into three groups. […] The solution for oral metformin administration was prepared in saline at a single dose of 100 mg/kg. Drugs were orally administered to rats by gavage between 7:00 a.m. and 8:00 a.m. […] The blood samples were centrifuged at 5000 rpm for 10 min, and the plasma was transferred to new centrifuge tubes and then stored at – 80 °C.
A Cortecs UPLC C18 column (2.1 × 50 mm, 1.6 µm, Waters Corporation, Milford, MA, USA) was used for chromatographic separation. The column temperature and injection volume were set at 40 °C and 1 µl, respectively. The mobile phase comprised acetonitrile (eluent A) and 2 mM ammonium acetate in water (eluent B) with 0.1% 98–100% formic acid. The flow rate was maintained at 0.3 ml/min. The gradient elution was as follows: 0–3 min, 5% A; […]; 3–5 min, linear from 5 to 95% A; 5–6 min, linear from 95 to 5% A. The mass spectrometer operated in the multiple reaction monitoring mode.
The maximum plasma concentration (Cmax) and the time to reach the Cmax (tmax) were obtained directly from the measured values. All of the above-mentioned parameters underwent statistical analysis.

[7] = tested on: OATP1B1; parameters: method as in earlier work; conditions: in vitro studies; cited from earlier work
[8] = tested on: MATE1; parameters: method as in earlier work; conditions: in vitro studies; cited from earlier work
[9] = tested on: OCT1; parameters: method as in earlier work; conditions: in vitro studies; cited from earlier work
[10] = 100 mg/kg, IIIOLA: olaparib 100 mg/kg b.w. oral single dose alone
[11] = 100 mg/kg, IMET+OLA: metformin 100 mg/kg b.w. + olaparib 100 mg/kg b.w. oral single dose
[12] = IIIOLA: olaparib 100 mg/kg b.w. oral single dose alone
[13] = IMET+OLA: metformin 100 mg/kg b.w. + olaparib 100 mg/kg b.w. oral single dose

O=C(c1cc(Cc2n[nH]c(=O)c3ccccc23)ccc1F)N1CCN(C(=O)C2CC2)CC1 [olaparib, Olaparib]
inhibition of OCT2 [1]: inhibits | percentage of late apoptotic cells [2]: 5.1% | inhibition of MATE2K [3]: inhibits | inhibition of BCRP [4]: inhibits | inhibition of OAT3 [5]: inhibits | concentration at 0.083 h ([6]; 100 mg/kg, t 0.083 h, IIIOLA (olaparib alone)): 1080 ng/mL | concentration at 0.167 h ([6]; 100 mg/kg, t 0.167 h, IIIOLA (olaparib alone)): 2220 ng/mL | concentration at 0.333 h ([6]; 100 mg/kg, t 0.333 h, IIIOLA (olaparib alone)): 3790 ng/mL | concentration at 0.5 h ([6]; 100 mg/kg, t 0.500 h, IIIOLA (olaparib alone)): 4590 ng/mL | concentration at 0.75 h ([6]; 100 mg/kg, t 0.750 h, IIIOLA (olaparib alone)): 4440 ng/mL | concentration at 1 h ([6]; 100 mg/kg, t 1 h, IIIOLA (olaparib alone)): 7110 ng/mL | concentration at 2 h ([6]; 100 mg/kg, t 2 h, IIIOLA (olaparib alone)): 6050 ng/mL | concentration at 3 h ([6]; 100 mg/kg, t 3 h, IIIOLA (olaparib alone)): 4140 ng/mL | concentration at 4 h ([6]; 100 mg/kg, t 4 h, IIIOLA (olaparib alone)): 528 ng/mL | concentration at 6 h ([6]; 100 mg/kg, t 6 h, IIIOLA (olaparib alone)): 1460 ng/mL | concentration at 8 h ([6]; 100 mg/kg, t 8 h, IIIOLA (olaparib alone)): 851 ng/mL | concentration at 10 h ([6]; 100 mg/kg, t 10 h, IIIOLA (olaparib alone)): 480 ng/mL | concentration at 12 h ([6]; 100 mg/kg, t 12 h, IIIOLA (olaparib alone)): 196 ng/mL | concentration at 24 h ([6]; 100 mg/kg, t 24 h, IIIOLA (olaparib alone)): 27.2 ng/mL | concentration at 0.083 h ([6]; t 0.083 h, IMET+OLA (metformin and olaparib)): 1530 ng/mL | concentration at 0.167 h ([6]; t 0.167 h, IMET+OLA (metformin and olaparib)): 4270 ng/mL | concentration at 0.333 h ([6]; t 0.333 h, IMET+OLA (metformin and olaparib)): 7190 ng/mL | concentration at 0.5 h ([6]; t 0.500 h, IMET+OLA (metformin and olaparib)): 7240 ng/mL | concentration at 0.75 h ([6]; t 0.750 h, IMET+OLA (metformin and olaparib)): 7770 ng/mL | concentration at 1 h ([6]; t 1 h, IMET+OLA (metformin and olaparib)): 7120 ng/mL | concentration at 2 h ([6]; t 2 h, IMET+OLA (metformin and olaparib)): 6220 ng/mL | concentration at 3 h ([6]; t 3 h, IMET+OLA (metformin and olaparib)): 4080 ng/mL | concentration at 4 h ([6]; t 4 h, IMET+OLA (metformin and olaparib)): 3200 ng/mL | concentration at 6 h ([6]; t 6 h, IMET+OLA (metformin and olaparib)): 1190 ng/mL | concentration at 8 h ([6]; t 8 h, IMET+OLA (metformin and olaparib)): 490 ng/mL | concentration at 10 h ([6]; t 10 h, IMET+OLA (metformin and olaparib)): 155 ng/mL | concentration at 12 h ([6]; t 12 h, IMET+OLA (metformin and olaparib)): 94.4 ng/mL | concentration at 24 h ([6]; t 24 h, IMET+OLA (metformin and olaparib)): 74.8 ng/mL | AUC(0-inf) [6, 10]: 28600 ng·h/mL | AUC(0-t) [6, 10]: 28300 ng·h/mL | Cmax [6, 10]: 8720 ± 6800 ng/mL | Tmax [6, 10]: 1.18 ± 0.91 h | Vd/F [6, 10]: 22.5 ± 24.8 L | k el [6, 10]: 0.000122 s⁻¹ | AUC(0-inf) [6, 11]: 29000 ng·h/mL | AUC(0-t) [6, 11]: 28300 ng·h/mL | Cmax [6, 11]: 9420 ± 6330 ng/mL | Tmax [6, 11]: 1.11 ± 0.75 h | Vd/F [6, 11]: 12.5 ± 11.6 L | k el [6, 11]: 9.44e-05 s⁻¹ | Cl/F [6, 12]: 7.84 ± 15.21 l/h and 7.84 ± 15.21 (193.9) l/h | t0.5 [6, 12]: 4.79 ± 6.06 (126.5) h | Cl/F [6, 13]: 2.62 ± 2.07 l/h and 2.62 ± 2.07 (79.0) l/h | t0.5 [6, 13]: 3.18 ± 2.28 (71.7) h | C_ola ([6]; t 0.083 h, IMET+OLA (metformin and olaparib), individual rats 9-16): 399.8 ng/mL and 205.5 ng/mL and 1282.8 ng/mL and 2905.9 ng/mL and 1816.4 ng/mL and 1671.7 ng/mL and 346.2 ng/mL and 3579.7 ng/mL | C_ola ([6]; t 0.167 h, IMET+OLA (metformin and olaparib), individual rats 9-16): 735.8 ng/mL and 409.9 ng/mL and 5081.5 ng/mL and 9225.7 ng/mL and 5056.5 ng/mL and 3857.8 ng/mL and 1362.6 ng/mL and 8409.9 ng/mL | C_ola ([6]; t 0.333 h, IMET+OLA (metformin and olaparib), individual rats 9-16): 1895.1 ng/mL and 1378.1 ng/mL and 6639.2 ng/mL and 14659.7 ng/mL and 8931.6 ng/mL and 11236.6 ng/mL and 1385.6 ng/mL and 11426.1 ng/mL | C_ola ([6]; t 0.500 h, IIIOLA (olaparib alone), individual rats 1-8): 3742.4 ng/mL and 535.2 ng/mL and 12507.8 ng/mL and 7237.7 ng/mL and 6302.7 ng/mL and 1652.9 ng/mL and 418.2 ng/mL and 8077.9 ng/mL | C_ola ([6]; t 0.500 h, IMET+OLA (metformin and olaparib), individual rats 9-16): 3714.2 ng/mL and 1709.6 ng/mL and 7002.5 ng/mL and 13973.1 ng/mL and 6376.6 ng/mL and 773.6 ng/mL and 17095.7 ng/mL | C_ola ([6]; t 0.750 h, IIIOLA (olaparib alone), individual rats 1-8): 3804.2 ng/mL and 2586.8 ng/mL and 15300.4 ng/mL and 11009.1 ng/mL and 7991.7 ng/mL and 1511.2 ng/mL and 355.6 ng/mL and 8277 ng/mL | C_ola ([6]; t 0.750 h, IMET+OLA (metformin and olaparib), individual rats 9-16): 3217.4 ng/mL | C_ola ([6]; t 1 h, IIIOLA (olaparib alone), individual rats 1-8): 6130.9 ng/mL and 3469.6 ng/mL and 13706 ng/mL and 16348.7 ng/mL and 9042.2 ng/mL and 1418.9 ng/mL and 698.2 ng/mL and 6102.6 ng/mL | C_ola ([6]; t 2 h, IIIOLA (olaparib alone), individual rats 1-8): 8834.3 ng/mL and 2628.7 ng/mL and 19817.4 ng/mL and 10845 ng/mL and 3432.4 ng/mL and 1456.7 ng/mL and 45.1 ng/mL and 1370.2 ng/mL | C_ola ([6]; t 3 h, IIIOLA (olaparib alone), individual rats 1-8): 10275 ng/mL and 2662.1 ng/mL and 12843.4 ng/mL and 4820.1 ng/mL and 969 ng/mL and 1168.9 ng/mL and 6.7 ng/mL and 409.4 ng/mL | C_ola ([6]; t 4 h, IIIOLA (olaparib alone), individual rats 1-8): 437.9 ng/mL and 948.8 ng/mL and 197 ng/mL | C_ola ([6]; t 6 h, IIIOLA (olaparib alone), individual rats 1-8): 5403.6 ng/mL and 829.1 ng/mL and 4359.8 ng/mL and 822.4 ng/mL and 31.7 ng/mL and 206.3 ng/mL and 4.8 ng/mL and 35.7 ng/mL | C_ola ([6]; t 8 h, IIIOLA (olaparib alone), individual rats 1-8): 2408.4 ng/mL and 295.6 ng/mL and 2024.1 ng/mL and 243.9 ng/mL and 17.4 ng/mL and 116.3 ng/mL | C_ola ([6]; t 10 h, IIIOLA (olaparib alone), individual rats 1-8): 701.7 ng/mL and 75.4 ng/mL and 1071 ng/mL and 70.2 ng/mL | C_ola ([6]; t 12 h, IIIOLA (olaparib alone), individual rats 1-8): 362.3 ng/mL and 53.7 ng/mL and 337 ng/mL and 32.3 ng/mL | C_ola ([6]; t 24 h, IIIOLA (olaparib alone), individual rats 1-8): 34.8 ng/mL and 36.4 ng/mL and 10.4 ng/mL | inhibition of OATP1B1 [7]: inhibits | inhibition of MATE1 [8]: inhibits | inhibition of OCT1 [9]: inhibits
